25 compounds from patent publication US8377974B2 (Millennium Pharmaceuticals, Inc., priority 2004, dated 2013) can be followed below.

A word on the IC50: it is the concentration that gives 50% inhibition. High values mean weaker potency in that assay, low ones greater potency in that assay.

T1 sequence (P00742 235-488 limits assumed): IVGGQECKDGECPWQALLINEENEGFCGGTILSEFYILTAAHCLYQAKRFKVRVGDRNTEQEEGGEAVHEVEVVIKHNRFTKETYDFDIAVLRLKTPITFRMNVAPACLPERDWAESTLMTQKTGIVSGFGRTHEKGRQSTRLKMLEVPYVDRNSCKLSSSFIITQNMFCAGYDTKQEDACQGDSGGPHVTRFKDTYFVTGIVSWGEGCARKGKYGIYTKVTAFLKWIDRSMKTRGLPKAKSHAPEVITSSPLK
T1 sequence (P00742 41-179 partner limits assumed): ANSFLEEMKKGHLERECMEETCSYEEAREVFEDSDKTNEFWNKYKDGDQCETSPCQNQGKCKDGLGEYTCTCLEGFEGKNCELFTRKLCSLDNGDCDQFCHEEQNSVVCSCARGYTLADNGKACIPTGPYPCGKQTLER

The experiment has as its target T1, human plasma protein factor Xa (Homo sapiens, UniProt P00742).
T1 construct: measure proteolytic activity of the enzyme (factor Xa); purchased Haematologic Technologies (Essex Junction, Vt.); host or cells: human plasma
Description: Factor Xa IC50 determination: cleavage of paranitroanilide substrate S-2765 in 96-well plates. The class given is biochemical. The note with it: fXa 1 nM, S-2765 100 μM, Tris buffered saline pH 7.4, room temperature. In a few lines:
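Initial rates of S-2765 (100 μM final) cleavage, read at 405 nm for 2 min, fitted with a four-parameter equation to give IC50. Enzyme: 1 nM human plasma fXa, 5 min room-temperature preincubation with inhibitor (0.01 nM–10 μM) in 20 mM Tris, 150 mM NaCl, 5 mM CaCl2, 0.1% BSA, 5% DMSO, pH 7.4; duplicates.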
Regarding `N=C(c1ccc(-c2ccc(F)c(CNC(=O)c3ccc(Cl)s3)c2)cc1)N1CCCC1` [Example 376, 5-Chloro-N-((5-(4-(imino(pyrrolidin-1-yl)methyl)phenyl)-2-fluorophenyl)methyl)thiophene-2-carboxamide], the half-inhibitory concentration (IC50) is ≤ 100 nM.
With `CN(C)C(=N)c1ccc(-c2cc(CNC(=O)c3ccc(Cl)s3)ccc2F)cc1` [Example 377, N-((3-(4-(N,N-Dimethylcarbamimidoyl)phenyl)-4-fluorophenyl)methyl)-5-chlorothiophene-2-carboxamide], the IC50 is ≤ 100 nM.
As for `CN1CCN=C1c1ccc(-c2cc(CNC(=O)c3ccc(Cl)s3)ccc2F)cc1` [Example 378, 5-Chloro-N-((3-(4-(1-methyl-4,5-dihydro-1H-imidazol-2-yl)phenyl)-4-fluorophenyl)methyl)thiophene-2-carboxamide], the IC50 lay within 100 to 500 nM.
Then `N=C(c1ccc(-c2cc(CNC(=O)c3ccc(Cl)s3)ccc2F)cc1)N1CCCC1` [Example 379, 5-Chloro-N-((3-(4-(imino(pyrrolidin-1-yl)methyl)phenyl)-4-fluorophenyl)methyl)thiophene-2-carboxamide], with ≤ 100 nM; and `CN(C)C(=N)c1ccc(-c2cccc(CNC(=O)c3ccc(Cl)s3)c2)cc1` [Example 380, N-((3-(4-(N,N-Dimethylcarbamimidoyl)phenyl)phenyl)methyl)-5-chlorothiophene-2-carboxamide], with ≤ 100 nM; and `CN1CCN=C1c1ccc(-c2cccc(CNC(=O)c3ccc(Cl)s3)c2)cc1` [Example 381, 5-Chloro-N-((3-(4-(1-methyl-4,5-dihydro-1H-imidazol-2-yl)phenyl)phenyl)methyl)thiophene-2-carboxamide], with ≤ 100 nM.
Next, `N=C(c1ccc(-c2cccc(CNC(=O)c3ccc(Cl)s3)c2)cc1)N1CCCC1` [Example 382, 5-Chloro-N-((3-(4-(imino(pyrrolidin-1-yl)methyl)phenyl)phenyl)methyl)thiophene-2-carboxamide]: ≤ 100 nM; `CN1CCCN(c2ccc(-n3cc(CNC(=O)c4ccc(Cl)s4)nn3)cn2)CC1` [Example 383, 5-Chloro-N-((1-(6-(4-methyl-1,4-diazepan-1-yl)pyridin-3-yl)-1H-1,2,3-triazol-4-yl)methyl)thiophene-2-carboxamide]: ≤ 100 nM; `O=C(NCc1cn(-c2ccc(N3CCCNCC3)nc2)nn1)c1ccc(Cl)s1` [Example 384, N-((1-(6-(1,4-Diazepan-1-yl)pyridin-3-yl)-1H-1,2,3-triazol-4-yl)methyl)-5-chlorothiophene-2-carboxamide]: ≤ 100 nM.
Next, `O=C(NCc1cn(-c2ccc(N3CCCOCC3)nc2)nn1)c1ccc(Cl)s1` [Example 385, N-((1-(6-(1,4-Oxazepan-4-yl)pyridin-3-yl)-1H-1,2,3-triazol-4-yl)methyl)-5-chlorothiophene-2-carboxamide]: 100 to 500 nM; `O=C(NCc1cn(-c2ccc(N3CCOCC3)nc2)nn1)c1ccc(Cl)s1` [Example 386, 5-Chloro-N-((1-(6-morpholinopyridin-3-yl)-1H-1,2,3-triazol-4-yl)methyl)thiophene-2-carboxamide]: 100 to 500 nM; `O=C(NCc1cn(-c2ccc(N3CCOCC3=O)nc2)nn1)c1ccc(Cl)s1` [Example 387, 5-Chloro-N-((1-(6-(3-oxomorpholino)pyridin-3-yl)-1H-1,2,3-triazol-4-yl)methyl)thiophene-2-carboxamide]: ≤ 100 nM.
Consider `O=C(NCc1cn(-c2ccc(N3CCCCC3=O)nc2)nn1)c1ccc(Cl)s1` [Example 388, 5-Chloro-N-((1-(6-(2-oxopiperidin-1-yl)pyridin-3-yl)-1H-1,2,3-triazol-4-yl)methyl)thiophene-2-carboxamide], for which the concentration for half-maximal inhibition (IC50) is ≤ 100 nM.
In the case of `O=C(NCc1cn(-c2ccc(-n3ccccc3=O)nc2)nn1)c1ccc(Cl)s1` [Example 389, 5-Chloro-N-((1-(6-(2-oxopyridin-1(2H)-yl)pyridin-3-yl)-1H-1,2,3-triazol-4-yl)methyl)thiophene-2-carboxamide], the IC50 was ≤ 100 nM.
Next, `O=C(NCc1cn(-c2ccc(N3CCNCC3)nc2)nn1)c1ccc(Cl)s1` [Example 390, 5-Chloro-N-((1-(6-(piperazin-1-yl)pyridin-3-yl)-1H-1,2,3-triazol-4-yl)methyl)thiophene-2-carboxamide]: 100 to 500 nM; `CN1CCN(c2ccc(-n3cc(CNC(=O)c4ccc(Cl)s4)nn3)cn2)CC1` [Example 391, 5-Chloro-N-((1-(6-(4-methylpiperazin-1-yl)pyridin-3-yl)-1H-1,2,3-triazol-4-yl)methyl)thiophene-2-carboxamide]: 100 to 500 nM.
Then `O=C(NCc1cn(-c2ccc(N3CCCCC3)nc2)nn1)c1ccc(Cl)s1` [Example 392, 5-Chloro-N-((1-(6-(piperidin-1-yl)pyridin-3-yl)-1H-1,2,3-triazol-4-yl)methyl)thiophene-2-carboxamide], with 100 to 500 nM.
Next, `O=C(NCC1CC(c2ccc(Nc3ccnc4c(C(F)(F)F)cccc34)cc2)=NO1)c1ccc(Cl)s1` (stereo not shown) [Example 393, 5-Chloro-N-((3-(4-(8-(trifluoromethyl)quinolin-4-ylamino)phenyl)-4,5-dihydroisoxazol-5-yl)methyl)thiophene-2-carboxamide]: ≥ 500 nM; `O=C(NCC1CC(c2ccc(Nc3ccnc4cc(C(F)(F)F)ccc34)cc2)=NO1)c1ccc(Cl)s1` (stereo not shown) [Example 394, 5-Chloro-N-((3-(4-(7-(trifluoromethyl)quinolin-4-ylamino)phenyl)-4,5-dihydroisoxazol-5-yl)methyl)thiophene-2-carboxamide]: ≤ 100 nM; `O=C(NCC1CC(c2ccc(Nc3ccnc4ccc(C(F)(F)F)cc34)cc2)=NO1)c1ccc(Cl)s1` (stereo not shown) [Example 395, 5-Chloro-N-((3-(4-(6-(trifluoromethyl)quinolin-4-ylamino)phenyl)-4,5-dihydroisoxazol-5-yl)methyl)thiophene-2-carboxamide]: ≤ 100 nM.
With `O=C(NCC1CC(c2ccc(Nc3ccc4ncccc4c3)cc2)=NO1)c1ccc(Cl)s1` (stereo not shown) [Example 396, 5-Chloro-N-((3-(4-(quinolin-6-ylamino)phenyl)-4,5-dihydroisoxazol-5-yl)methyl)thiophene-2-carboxamide], the IC50 is ≥ 500 nM.
Next, `O=C(NCC1CC(c2ccc(C(=O)N3CC=CC3)cc2)=NO1)c1ccc(Cl)s1` (stereo not shown) [Example 397, 5-Chloro-N-((3-(4-(2,5-dihydro-1H-pyrrole-1-carbonyl)phenyl)-4,5-dihydroisoxazol-5-yl)methyl)thiophene-2-carboxamide]: ≤ 100 nM; `COC[C@H]1CCCN1C(=O)c1ccc(C2=NOC(CNC(=O)c3ccc(Cl)s3)C2)cc1` (stereo partly shown) [Example 398]: 100 to 500 nM; `CC(O)CNC(=O)c1ccc(C2=NOC(CNC(=O)c3ccc(Cl)s3)C2)cc1` (stereo not shown) [Example 399, N-((3-(4-((2-Hydroxypropyl)carbamoyl)phenyl)-4,5-dihydroisoxazol-5-yl)methyl)-5-chlorothiophene-2-carboxamide]: ≥ 500 nM.
As to `Cc1cnccc1Nc1ccc(C2=NOC(CNC(=O)c3ccc(Cl)s3)C2)cc1` (stereo not shown) [Example 400, 5-Chloro-N-((3-(4-(3-methylpyridin-4-ylamino)phenyl)-4,5-dihydroisoxazol-5-yl)methyl)thiophene-2-carboxamide], the IC50 is ≤ 100 nM.
